In PubChem BioAssay (NCI):
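Method: 48-hour compound exposure of cells in 96-well plates, five concentrations, linear interpolation of endpoints. GI50: concentration for 50% inhibition of growth. At the TGI there is no net growth.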

Tests used:
Assay in all cases: NCI-60 cell line screen, 48 h
[1] = tested on: IGROV1 ovarian
[2] = tested on: NCI-H460 lung
[3] = tested on: SK-MEL-2 melanoma
[4] = tested on: RXF 393 renal
[5] = tested on: HOP-62 NSCLC
[6] = tested on: 786-0 renal
[7] = tested on: HL-60(TB) leukemia
[8] = tested on: HOP-92 NSCLC
[9] = tested on: EKVX NSCLC
[10] = tested on: M14 melanoma

CCCCCc1nnc(NS(=O)(=O)c2ccc(NC(=O)OCC(C)C)cc2)s1
TGI [1]: 97.7 µM
TGI [2]: > 100 µM
TGI [3]: 53.5 µM
TGI [4]: > 100 µM
TGI [5]: > 100 µM
TGI [6]: > 100 µM
TGI [7]: > 100 µM
TGI [8]: 77.3 µM
TGI [9]: 78.2 µM
TGI [10]: > 100 µM

C(=N\Nc1ccc(-c2nc3ccccc3[nH]2)cc1)/c1c(-c2ccc(Cc3ccccc3)cc2)[nH]c2ccccc12
TGI [1]: 19 µM
TGI [2]: > 100 µM
TGI [3]: 20 µM
TGI [4]: 14.5 µM
TGI [5]: > 100 µM
TGI [6]: > 42.6 µM
TGI [7]: > 63.5 µM
TGI [8]: 25.7 µM
TGI [9]: > 100 µM
TGI [10]: > 54.4 µM

CSCCCS/C1=C/CCCCCCCCCC1
TGI [1]: > 100 µM
TGI [2]: > 100 µM
TGI [3]: > 100 µM
TGI [4]: > 100 µM
TGI [5]: > 100 µM
TGI [6]: > 100 µM
TGI [7]: > 100 µM
TGI [8]: > 100 µM
TGI [9]: > 100 µM
TGI [10]: > 100 µM

CC1=NN(C(=O)CC(=O)Nc2ccccc2Cl)C(=O)C1N=Nc1ccc(S(=O)(=O)c2ccc(N=NC3C(=O)N(C(=O)CC(=O)Nc4ccccc4Cl)N=C3C)cc2)cc1 (stereo not given)
TGI [1]: > 100 µM
TGI [2]: > 100 µM
TGI [3]: > 100 µM
TGI [4]: > 100 µM
TGI [5]: > 100 µM
TGI [6]: > 100 µM
TGI [7]: > 100 µM
TGI [8]: > 100 µM
TGI [9]: > 100 µM
TGI [10]: > 100 µM

CCOC(=O)c1c(Br)c(-c2ccc(OC)cc2)c(Br)n1C
TGI [1]: > 100 µM
TGI [2]: > 100 µM
TGI [3]: 39.1 µM
TGI [4]: 45 µM
TGI [5]: 39.7 µM
TGI [6]: 73.4 µM
TGI [7]: 14.1 µM
GI50 [8]: 0.0721 µM
TGI [8]: 14.1 µM
TGI [9]: 74.8 µM
TGI [10]: > 100 µM

C(/Cc1ccc2c(c1)OCO2)=N\NC1=NCCN1
TGI [1]: > 100 µM
TGI [2]: > 100 µM
TGI [3]: > 100 µM
TGI [4]: > 100 µM
TGI [5]: > 100 µM
TGI [6]: > 100 µM
TGI [7]: > 100 µM
TGI [8]: > 100 µM
TGI [9]: > 100 µM
TGI [10]: > 100 µM

C=CC(OC(C)=O)c1ccc(OC(=O)C(C)C)c(OC)c1 (stereo not given)
TGI [1]: 28.7 µM
TGI [2]: > 57.6 µM
TGI [3]: 15.8 µM
TGI [4]: 14.4 µM
TGI [5]: 28.4 µM
TGI [6]: 4.25 µM
TGI [7]: > 23.6 µM
TGI [8]: 11.5 µM
TGI [9]: 16.6 µM
TGI [10]: 17.3 µM

O=C(NC1CCCCC1)c1cc2ccccc2cc1O
TGI [1]: > 100 µM
TGI [2]: 62.8 µM
TGI [3]: 44.7 µM
TGI [4]: 58.5 µM
TGI [5]: > 100 µM
TGI [6]: 84.5 µM
TGI [7]: 96.1 µM
TGI [8]: 65.1 µM
TGI [9]: > 100 µM
TGI [10]: 53.3 µM

COC(=O)/C=C\C(C#N)(C#N)N=Cc1ccccc1
TGI [1]: 25.9 µM
TGI [2]: 39.5 µM
TGI [3]: 32.9 µM
TGI [4]: 4.28 µM
TGI [5]: 34 µM
TGI [6]: 3.22 µM
TGI [7]: 6.42 µM
TGI [8]: 3.74 µM
TGI [9]: 27.3 µM
TGI [10]: 5.41 µM

COC(=O)[C@H]1NC(=O)CCSSC1(C)C
TGI [1]: > 100 µM
TGI [3]: > 100 µM
TGI [4]: > 100 µM
TGI [5]: > 100 µM
TGI [6]: > 100 µM
TGI [7]: > 100 µM
TGI [8]: > 100 µM
TGI [9]: > 100 µM
TGI [10]: > 100 µM

Cc1ccc(-n2cc(-c3ccc(Cl)cc3)c3c(N/N=C4\SCC(=O)N4C)ncnc32)cc1
TGI [1]: > 100 µM
TGI [2]: 43.2 µM
TGI [3]: 6.18 µM
TGI [4]: 48.1 µM
TGI [5]: 98.8 µM
TGI [6]: 10.6 µM
TGI [7]: > 100 µM
TGI [8]: 8.24 µM
TGI [9]: > 100 µM
TGI [10]: 19.5 µM

C=C1c2nc3ccccc3n2C=C(c2ccc(C)cc2)N1c1ccc(C)cc1
TGI [1]: > 100 µM
TGI [2]: > 100 µM
TGI [3]: > 100 µM
TGI [4]: > 96.6 µM
TGI [5]: > 100 µM
TGI [6]: > 100 µM
TGI [7]: 64.4 µM
TGI [8]: > 100 µM
TGI [9]: > 100 µM
TGI [10]: > 100 µM

O=[N+]([O-])c1ccc(N/N=C/CC(O)(C(F)(F)F)C(F)(F)F)c([N+](=O)[O-])c1
TGI [1]: > 10 µM
TGI [2]: 8.35 µM
TGI [3]: 6.64 µM
TGI [4]: > 10 µM
TGI [5]: > 10 µM
TGI [6]: > 10 µM
TGI [7]: > 10 µM
TGI [8]: 6.59 µM
TGI [9]: > 10 µM
TGI [10]: > 10 µM

CC1(C)C(=O)c2ccccc2OC1N1CCN(C2Oc3ccccc3C(=O)C2(C)C)CC1 (stereo not given)
TGI [1]: > 100 µM
TGI [2]: > 100 µM
TGI [4]: > 100 µM
TGI [5]: > 100 µM
TGI [7]: > 100 µM
TGI [8]: > 100 µM
TGI [9]: > 100 µM
TGI [10]: > 100 µM

CCOC(=O)c1cc(I)c(-c2cc(C)no2)n1C
TGI [2]: > 100 µM
TGI [3]: > 100 µM
TGI [4]: 42.8 µM
TGI [6]: > 100 µM
TGI [7]: 74.5 µM
TGI [8]: > 100 µM
TGI [9]: > 100 µM
TGI [10]: > 100 µM

C=CCN1C(=O)/C(=C/c2ccco2)N=C1SC1OC(COC(C)=O)C(OC(C)=O)C(OC(C)=O)C1OC(C)=O (stereo not given)
TGI [1]: > 100 µM
TGI [2]: > 100 µM
TGI [3]: > 100 µM
TGI [4]: > 100 µM
TGI [5]: > 100 µM
TGI [7]: 53.4 µM
TGI [8]: > 100 µM
TGI [9]: > 100 µM

O=c1c2c3c(sc2nc2n1N=C(c1ccc(Cl)cc1)CS2)CCCC3
TGI [1]: > 100 µM
TGI [2]: > 100 µM
TGI [4]: > 100 µM
TGI [5]: > 100 µM
TGI [6]: > 100 µM
TGI [7]: > 100 µM
TGI [8]: > 100 µM
TGI [9]: > 100 µM

Oc1ccc(Cl)cc1-c1cc(-c2ccccc2)nc(NCN2CCCCC2)n1
TGI [1]: > 100 µM
TGI [2]: > 100 µM
TGI [3]: > 100 µM
TGI [4]: > 100 µM
TGI [5]: > 100 µM
TGI [6]: > 100 µM
TGI [7]: > 100 µM
TGI [8]: > 100 µM
TGI [9]: > 100 µM
TGI [10]: > 100 µM

CSc1cc(-c2ccccn2)nc(-c2ccccn2)c1
TGI [1]: 8.99 µM
TGI [2]: 1.88 µM
TGI [3]: 14.9 µM
TGI [4]: 4.47 µM
TGI [5]: 4.49 µM
TGI [6]: 11.4 µM
TGI [7]: 0.89 µM
TGI [8]: 2.91 µM
TGI [9]: 12.3 µM
TGI [10]: 0.335 µM

O=[N+]([O-])c1ccccc1S(=O)(=O)c1ccccc1
TGI [1]: > 100 µM
TGI [2]: > 100 µM
TGI [3]: > 100 µM
TGI [4]: > 100 µM
TGI [5]: > 100 µM
TGI [7]: > 100 µM
TGI [8]: > 100 µM
TGI [9]: > 100 µM
TGI [10]: > 100 µM

CC(=O)c1ccccc1NCC(=O)Nn1cnc2ccc(S(=O)(=O)Nc3ccccc3C(C)=O)cc2c1=O
TGI [1]: > 100 µM
TGI [2]: > 100 µM
TGI [3]: > 100 µM
TGI [5]: > 100 µM
TGI [6]: > 100 µM
TGI [7]: > 100 µM
TGI [8]: > 100 µM
TGI [9]: > 100 µM
TGI [10]: > 100 µM
